The results in this text go back to patent US12661410B2, “Compounds for targeted degradation of RET” (C4 Therapeutics, Inc., priority 2020, dated 2026).

Numbering of substitutions follows the chain as printed. Where only a bound is given, the exact number is not on record here.

For one assay, the target named is T1, RET(KD: 658-1114 G810R) (Homo sapiens, UniProt P07949, G810R).
T1 construct: 658-1114; expressed in transfected cells; host or cells: 293T.165 (293T cells, generated in-house)
T1 sequence (P07949 658-1114 G810R): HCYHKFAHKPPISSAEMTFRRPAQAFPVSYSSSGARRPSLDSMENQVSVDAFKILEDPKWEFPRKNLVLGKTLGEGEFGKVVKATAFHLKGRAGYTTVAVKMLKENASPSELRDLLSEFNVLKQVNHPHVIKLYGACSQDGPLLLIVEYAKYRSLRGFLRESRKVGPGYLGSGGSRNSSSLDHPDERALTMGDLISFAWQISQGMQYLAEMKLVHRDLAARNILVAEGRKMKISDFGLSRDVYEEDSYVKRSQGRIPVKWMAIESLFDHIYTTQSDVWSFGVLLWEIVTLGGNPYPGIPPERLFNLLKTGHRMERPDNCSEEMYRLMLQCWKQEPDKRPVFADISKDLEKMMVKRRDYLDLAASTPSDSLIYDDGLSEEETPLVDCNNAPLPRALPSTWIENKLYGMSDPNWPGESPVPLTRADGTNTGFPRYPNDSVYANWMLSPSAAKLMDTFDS
Nature of the assay: HiBiT-Degradation, RET G810R degradation assay (Nano-Glo HiBiT Lytic), 293T.165 cells. Conditions: for Emax / DC50: 6.0 hours; for Emax: % remaining protein, read-out: 293T.165 RET(KD: 658-1114 G810R) 6.0 hours (Emax); for DC50: half-maximal degradation concentration, read-out: 293T.165 RET(KD: 658-1114 G810R) 6.0 hours (DC50). In kind it is cell-based. An excerpt:
(§1) Dulbecco's modified Eagle medium (DMEM) no-phenol red media and fetal bovine serum (FBS) were purchased from Gibco (Grand Island, NY, USA). Cell lines ectopically expressing wild-type or G810R RET kinase domain fused with a HiBiT tag were generated in-house (293T. 144 and 293T. 165, respectively). Cell culture flasks and 384-well microplates were acquired from VWR (Radnor, PA, USA). The Nano-Glo® HiBiT Lytic Assay System was purchased from Promega (Madison, WI, USA).
(§2) RET wild-type (WT) and G810R degradation were assessed using the Nano-Glo® HiBiT Lytic assay (Promega, Medison, WI, USA). To determine the effect of degraders on protein levels, cells were plated in 384-well plates and treated with compounds of interest in duplicates for 6 hours using an 11-point half-log dilution series, with the highest dose set at 10 μM. Cell lysis and addition of the Nano-Glo® HiBiT Lytic Assay reagents was then performed. Luminescence signal was measured using an EnVision™ Multimode plate reader (Perkin Elmer, Santa Clara, CA, USA). The half-maximal degradation concentration (DC50) and % remaining protein (Emax) was then derived from the dose-response curves.
For orientation: The HiBiT peptide binds its large partner to form an active luciferase.

Another assay deals with T2, RET (658-1114) (Homo sapiens, UniProt P07949).
T2 construct: 658-1114; expressed in transfected cells; host or cells: 293T.144 (293T cells, generated in-house)
T2 sequence (P07949 658-1114): T1 sequence (P07949 658-1114 G810R) with R153G
Kind of assay: HiBiT-Degradation, RET wild-type degradation assay (Nano-Glo HiBiT Lytic), 293T.144 cells. In kind it is cell-based. Conditions: for Emax / DC50: 6.0 hours; for Emax: % remaining protein, read-out: 293T.144 RET (658-1114) 6.0 hours (Emax); for DC50: half-maximal degradation concentration, read-out: 293T.144 RET (658-1114) 6.0 hours (DC50).
Source text: as §1, §2

With `N#Cc1cnn2cc(-c3cnn([C@H]4CC[C@H](N5CCN(c6c(F)cc(NC7CCC(=O)NC7=O)cc6F)CC5)CC4)c3)nc(-c3ccc(N4CC[C@H](OCc5ccccn5)C4)nc3)c12` (mixture of isomers) [Compound 211, 6-[1-[4-[4-[4-[(2,6-dioxo-3-piperidyl)amino]-2,6-difluoro-phenyl]piperazin-1-yl]cyclohexyl]pyrazol-4-yl]-4-[6-[rac-(3S)-3-(2-pyridylmethoxy)pyrrolidin-1-yl]-3-pyridyl]pyrazolo[1,5-a]pyrazine-3-carbonitrile], at RET(KD: 658-1114 G810R), the “293T.165 RET(KD: 658-1114 G810R) 6.0 hours (IP) [nM]” value was “++++ (<50 nM = ++++)”; the Emax (commonly the greatest response seen or fitted, relative to the assay's reference) is below 30%; the DC50 – broadly, the concentration giving 50% degradation – was below 50 nM. At RET (658-1114), the “293T.144 RET (658-1114) 6.0 hours (IP) [nM]” value (“293T.144 RET” below) was “++++ (<50 nM = ++++)”, the Emax is below 30% and the DC50 was below 50 nM.

Take `CCOc1ccc(CN2[C@@H]3COC[C@H]2CN(c2ccc(-c4nc(-c5cnn([C@H]6CC[C@H](N7CCN(c8c(F)cc(NC9CCC(=O)NC9=O)cc8F)CC7)CC6)c5)cn5ncc(C#N)c45)cn2)C3)cn1` (mixture of isomers) [Compound 212, 6-[1-[4-[4-[4-[(2,6-dioxo-3-piperidyl)amino]-2,6-difluoro-phenyl]piperazin-1-yl]cyclohexyl]pyrazol-4-yl]-4-[6-[rac-(1R,5S)-9-[(6-ethoxy-3-pyridyl)methyl]-3-oxa-7,9-diazabicyclo[3.3.1]nonan-7-yl]-3-pyridyl]pyrazolo[1,5-a]pyrazine-3-carbonitrile]: on RET(KD: 658-1114 G810R), the “293T.165 RET(KD: 658-1114 G810R) 6.0 hours (IP) [nM]” value is listed as “+++ (<100 nM = +++)”, the Emax was below 30% and the DC50 was below 100 nM. Besides, on RET (658-1114), the “293T.144 RET” value is “++++ (<50 nM = ++++)”, the Emax is below 30% and the DC50 was below 50 nM.

Take `CC(C)Oc1ccc(CN2[C@@H]3COC[C@H]2CN(c2ccc(-c4nc(-c5cnn([C@H]6CC[C@H](N7CCN(c8c(F)cc(NC9CCC(=O)NC9=O)cc8F)CC7)CC6)c5)cn5ncc(C#N)c45)cn2)C3)cn1` (mixture of isomers) [Compound 213, 6-[1-[4-[4-[4-[(2,6-dioxo-3-piperidyl)amino]-2,6-difluoro-phenyl]piperazin-1-yl]cyclohexyl]pyrazol-4-yl]-4-[6-[rac-(1R,5S)-9-[(6-isopropoxy-3-pyridyl)methyl]-3-oxa-7,9-diazabicyclo[3.3.1]nonan-7-yl]-3-pyridyl]pyrazolo[1,5-a]pyrazine-3-carbonitrile]: on RET(KD: 658-1114 G810R), the “293T.165 RET(KD: 658-1114 G810R) 6.0 hours (IP) [nM]” value was “+++ (<100 nM = +++)”, the Emax is below 30% and the DC50 is below 100 nM. Further, on RET (658-1114), the “293T.144 RET” value is given as “++++ (<50 nM = ++++)”, the Emax was below 30% and the DC50 was below 50 nM.

For the molecule `N#Cc1cnn2cc(-c3cnn([C@H]4CC[C@H](N5CCN(c6c(F)cc(N[C@@H]7CCC(=O)NC7=O)cc6F)CC5)CC4)c3)nc(-c3ccc(N4CCC5(CC4)OCc4cccnc45)nc3)c12` (racemic) [Compound 218, 6-[1-[4-[4-[2,6-difluoro-4-[[rac-(3R)-2,6-dioxo-3-piperidyl]amino]phenyl]piperazin-1-yl]cyclohexyl]pyrazol-4-yl]-4-(6-spiro[5H-furo[3,4-b]pyridine-7,4′-piperidine]-1′-yl-3-pyridyl)pyrazolo[1,5-a]pyrazine-3-carbonitrile], on RET(KD: 658-1114 G810R), the “293T.165 RET(KD: 658-1114 G810R) 6.0 hours (IP) [nM]” value is “++++ (<50 nM = ++++)”, the Emax was below 30% and the DC50 was below 50 nM. On RET (658-1114), the “293T.144 RET” value was “++++ (<50 nM = ++++)”, the Emax was below 30% and the DC50 is below 50 nM.

With `CCC1(C(=O)NC(C)(C)C)CCN(c2ccc(-c3nc(-c4cnn([C@H]5CC[C@H](N6CCN(c7c(F)cc(N[C@@H]8CCC(=O)NC8=O)cc7F)CC6)CC5)c4)cn4ncc(C#N)c34)cn2)CC1` (racemic) [Compound 219, N-tert-butyl-1-[5-[3-cyano-6-[1-[4-[4-[2,6-difluoro-4-[[rac-(3R)-2,6-dioxo-3-piperidyl]amino]phenyl]piperazin-1-yl]cyclohexyl]pyrazol-4-yl]pyrazolo[1,5-a]pyrazin-4-yl]-2-pyridyl]-4-ethyl-piperidine-4-carboxamide], at RET(KD: 658-1114 G810R), the “293T.165 RET(KD: 658-1114 G810R) 6.0 hours (IP) [nM]” value is given as “+++ (<100 nM = +++)”, the Emax is below 30% and the DC50 was below 50 nM. Also, at RET (658-1114), the “293T.144 RET” value is on record as “++++ (<50 nM = ++++)”, the Emax is below 30% and the DC50 is below 50 nM.

Consider `CCC1(C(=O)N[C@H](C)C(F)(F)F)CCN(c2ccc(-c3cc(-c4cnn(C5CCN(C(=O)CN6CCC(c7ccc(NC8CCC(=O)NC8=O)cc7F)CC6)CC5)c4)cn4ncc(C#N)c34)cn2)CC1` (stereo partly drawn) [Compound 7, 1-[5-[3-cyano-6-[1-[1-[2-[4-[4-[(2,6-dioxo-3-piperidyl)amino]-2-fluoro-phenyl]-1-piperidyl]acetyl]-4-piperidyl]pyrazol-4-yl]pyrazolo[1,5-a]pyridin-4-yl]-2-pyridyl]-4-ethyl-N-[(1R)-2,2,2-trifluoro-1-methyl-ethyl]piperidine-4-carboxamide], for which, at RET(KD: 658-1114 G810R), the Emax is below 50% and the DC50 was below 1000 nM.

Consider `N#Cc1cnn2cc(-c3ccc(N4CCN(C(=O)CN5CCC(c6ccc(NC7CCC(=O)NC7=O)cc6)CC5)CC4)cc3)cc(-c3ccc(C4(CO)CCCCC4)nc3)c12` (stereo not shown) [Compound 21, 6-(4-(4-(2-(4-(4-((2,6-Dioxopiperidin-3-yl)amino)phenyl)piperidin-1-yl)acetyl)piperazin-1-yl)phenyl)-4-(6-(1-(hydroxymethyl)cyclohexyl)pyridin-3-yl)pyrazolo[1,5-a]pyridine-3-carbonitrile], for which, at RET(KD: 658-1114 G810R), the Emax was below 50% and the DC50 is below 1000 nM.

Regarding `CCC1(C(=O)NC(C)C)CCN(c2ccc(-c3cc(-c4ccc(N5CCN(C(=O)CN6CCC(c7ccc(C8CCC(=O)NC8=O)cc7)CC6)CC5)cc4)cn4ncc(C#N)c34)cn2)CC1` (stereo not shown) [Compound 29, 1-(5-(3-Cyano-6-(4-(4-(2-(4-(4-(2,6-dioxopiperidin-3-yl)phenyl)piperidin-1-yl)acetyl)piperazin-1-yl)phenyl)pyrazolo[1,5-a]pyridin-4-yl)pyridin-2-yl)-4-ethyl-N-isopropylpiperidine-4-carboxamide], at RET(KD: 658-1114 G810R), the Emax is below 50% and the DC50 is below 1000 nM.

Turning to `CC(C)NC(=O)C1(C)CCN(c2ccc(-c3cc(-c4ccc(N5CCN(C(=O)CC6(O)CCN(c7ccc(CN8CCC(=O)NC8=O)cc7)CC6)CC5)cc4)cn4ncc(C#N)c34)cn2)CC1` [Compound 33, 1-[5-[3-cyano-6-[4-[4-[2-[1-[4-[(2,4-dioxohexahydropyrimidin-1-yl)methyl]phenyl]-4-hydroxy-4-piperidyl]acetyl]piperazin-1-yl]phenyl]pyrazolo[1,5-a]pyridin-4-yl]-2-pyridyl]-N-isopropyl-4-methyl-piperidine-4-carboxamide], at RET(KD: 658-1114 G810R), the Emax was below 70% and the DC50 is above 1000 nM.

For the molecule `CCC1(C(=O)NC(C)C)CCN(c2ccc(-c3cc(-c4cnc(N5CCN(C(=O)CN6CCC(c7ccc(NC8CCC(=O)NC8=O)cc7F)CC6)CC5)nc4)cn4ncc(C#N)c34)cn2)CC1` (stereo not shown) [Compound 37, 1-(5-(3-Cyano-6-(2-(4-(2-(4-(4-((2,6-dioxopiperidin-3-yl)amino)-2-fluorophenyl)piperidin-1-yl)acetyl)piperazin-1-yl)pyrimidin-5-yl)pyrazolo[1,5-a]pyridin-4-yl)pyridin-2-yl)-4-ethyl-N-isopropylpiperidine-4-carboxamide], on RET(KD: 658-1114 G810R), the Emax is below 50% and the DC50 was below 1000 nM.
